These are literature values, as cited in patent US6727227B1, “Tetrapetide revealing geroprotective effect, pharmacological substance on its basis, and the method of its application” (Obschestvo S Ogranichennoi Otvetstven-Nostiju “Klinika …, priority 2002, dated 2004).

One data set concerns experimental animals. To be noted: cited from earlier work.
In another data set the test system is LAF1 strain in mice. To be noted: LAF1 mice with accelerated ageing, food-supplement; cited from earlier work.
For the next data set, the system named is mice of SAM strain. The note with it: diet with increased amount for 7 months; cited from earlier work.
The subject of the next data set is mice of C3H strain. The note with it: addition to food; cited from earlier work.
Data set [1] deals with Drosophila melanogaster (HEM strain). The note with it: cited from earlier work.
For a further data set, the system named is mice. The note with it: cited from earlier work.

With `CCc1nc(C)ccc1O.Cl` [2-ethyl-6-methyl-3-oxypyridine chlorhydrate], in the data set with experimental animals, the Life span entry is “An increase in the life span”.
Turning to `NCCS` [2-mercaptoethanolamine], the Life span entry with experimental animals is listed as “insignificant extension in the life span”.
As to `Oc1cccnc1` [3-hydroxypyridine], in the data set on experimental animals, the Life span result was “insignificant extension in the life span”.
In the case of `Cc1cc(C(C)(C)C)c(O)c(C(C)(C)C)c1` [Ionol, 2.6-di-tert-butyl4-methylphenol], in the data set with LAF1 strain in mice, the Life span entry is given as “promoted an increase in the life span”.
As for `NCCC(=O)N[C@@H](Cc1cnc[nH]1)C(=O)O` [carnosine], the Death rate result with mice of SAM strain is on record as “death rat decreased”.
`CN(C)CCOC(=O)COc1ccc(Cl)cc1` [centrophenoxyn]: the Life span result in the data set on experimental animals is “insignificant extension in the life span”.
For `N[C@@H](CS)C(=O)O` [cystein], the Life span result with experimental animals is “insignificant extension in the life span”.
As for `CCOc1ccc2c(c1)C(C)=CC(C)(C)N2` [ethoxyhin], the Life span entry with mice of C3H strain is “extended the life span”.
As to `O=C(O)[C@H](O)[C@@H](O)[C@H](O)[C@H](O)CO` [gluconic acid, lactic and gluconic acids], the Life span result with experimental animals is recorded as “insignificant extension in the life span”.
Regarding `N[C@@H](CCC(=O)N[C@@H](CS)C(=O)NCC(=O)O)C(=O)O` [glutathione], in the data set with experimental animals, the Life span entry is given as “insignificant extension in the life span”.
In the case of `COc1ccc2[nH]cc(CCNC(C)=O)c2c1` [melatonin], the Geroprotective effect result in data set [1] was “failed to produce a geroprotective effect”. In addition, in the data set on mice, the Average life span result was “A minor increase in the average life span”.
With `O=C1O[C@H]([C@@H](O)CO)C(O)=C1O` [vitamin C], in the data set with experimental animals, the Life span entry is on record as “increase in the life span”.
For butyl hydroxytoluol, in the data set with experimental animals, the Life span result is given as “insignificant extension in the life span”.
With vitamin A, the Life span entry in the data set on experimental animals was “increase in the life span”.
For the compound vitamin E, in the data set with experimental animals, the Life span entry is “increase in the life span”.
